From ChEMBL document CHEMBL1212934, “Isolation of pandamarilactonine-H from the roots of Pandanus amaryllifolius and synthesis of epi-pandamarilactonine-H” (J Nat Prod, 2010)

What was measured:
Format in all cases: functional, cell-based
HT-29 = assay: Cytotoxicity against human HT-29 cells
A549 = assay: Cytotoxicity against human A549 cells
HCT-116 = assay: Cytotoxicity against human HCT116 cells

Measured: IC50

COC(=O)C[C@@H]1CCCN1CCC/C=C1\C=C(C)C(=O)O1
> 5 µg/mL: all assays above

COC(=O)C[C@H]1CCCN1CCC/C=C1\C=C(C)C(=O)O1
> 5 µg/mL: all assays above

COC(=O)C[C@H]1CCCN1CCC/C=C1/C=C(C)C(=O)O1
> 5 µg/mL: all assays above

CC1=C[C@H]([C@H]2CCCN2CCCC[C@@H]2C[C@@H](C)C(=O)O2)OC1=O
> 5 µg/mL: all assays above
